Test results as given in patent US20030130200A1, “Small peptides and methods for treatment of asthma and inflammation” (Hisatek, LLC, priority 1997, published 2003).
Entries after “also recorded” stand apart in the source; their conditions may differ. Where no end group is shown, it is not given here. The star is where a group is joined. For = O=C*

System: OVA-induced asthmatic mice
Assay: OVA-induced bronchial asthma mouse model, Standard/Resolution protocols, drug before each i.n. challenge
Format: in vivo, mouse (female BALB/c)
Source text: The OVA-Induced Bronchial Asthma Mouse Model for Inhibition of Mast Cell Degranulation
Reagents: Crystalline OVA was obtained from Pierce Chem. Co. (Rockford, Ill.) aluminum potassium sulfate (alum) from Sigma Chem. Co. (St. Louis, Mo.), pyrogen-free distilled water from Baxter, Healthcare Corporation (Deerfield, Ill.), 0.9% sodium chloride (normal saline) from Lymphomed (Deerfield, Ill.) and Trappsol™ HPB-L100 (aqueous hydroxypropyl beta cyclodextrin; 45 wt/vol % aqueous solution) from Cyclodextrin Technologies Development, Inc. (Gainesville, Fla.). The OVA (500 μg/ml in normal saline) was mixed with equal volumes of 10% (wt/vol) alum in distilled water. The mixture (pH 6.5 using 10 N NaOH) after incubation for 60 minutes at room temperature underwent centrifugation at 750 g for 5 minutes; the pellet was resuspended to the original volume in distilled water and used within one hour.
The selective 5-lipoxtgenase inhibitor, Zileuton (N-[1-benzo[b]thien-2-ylethyl]-N-hydroxyurea; J. Pharmacol Exp Ther. 1991; 256: 929-937), was kindly provided by Drs. Bell and George W. Carter (Abbott Laboratories, Abbott Part, Ill.). Zileuton was dissolved in Trappsol.™. Histatek, Inc. (Seattle, Wash.) provided the mast cell degranulation inhibitor, f-Met-Leu-Phe-Phe (“HK-X”).
Female BALB/c […] (6-8 wk of age at purchase; D and K, Seattle Wash.) were housed under conventional conditions for the studies.
Allergen Immunization/Challenge Protocols: Mice received an i.p. injection of 0.2 ml (100 μg) of OVA with alum on the different protocols of Standard (FIG. 5A) and Resolution (FIG. 5B) (J. Exp Med. 1996; 184: 1483-1494). According to the different protocols, mice were anesthetized with 0.2 ml i.p. of ketamine (0.44 mg/ml)/xylazine (6.3 mg/ml) in normal saline before receiving an intranasal (i.n.) does of 100 μg OVA in 0.05 ml normal saline and an i.n. dose of 50 μg OVA in 0.05 ml normal saline separately on different days. Two control groups were used. Accordingly, the first group received normal saline with alum i.p. and normal saline without alum i.n.; the second group received OVA with alum i.p., OVA without alum i.n., and normal saline, alone.
The trachea and left lung (the right lung is used for bronchoalveolar lavage (“BAL”)) were obtained and fixed in 10% neutral formaldehyde solution at room temperature for 6˜15h. After being embedded in paraffin, the tissues were cut into 5-um sections and processed with the different staining or immunolabling further. Discombe's eosinophil staining was used for counting the cell numbers with the counterstain of methylene blue. The eosinophil number per unit airway area (2,200 μm^2) was determined by morphometry (J. Pathol. 1992; 166: 395-404; Am Rev Respir Dis. 1993; 147:448-456). Fibrosis was identified with the Masson's trichrome staining. Airway mucus was identified by the following staining method: methylene blue, hematoxylin and eosin, mucicarmine, alcian blue, and alcian blue/periodic acid-Schiff (PAS) reaction (Troyer, H., “Carbohydrates” in Principles and Techniques of Histochemistry, Little, Brown and Company, Boston, Mass., 1980: 89-121; Sheehan, D. C., et al., “Carbohydrates” in Theory and Practice of Histotechnology, Battle Press, Columbus, Ohio, 1980: 159-179). Mucin was stained with mucicarmine solution; metanil yellow counterstain was employed.
Acidic mucin and sulfated mucosubstances were stained with alcian blue, pH 2.5; nuclear fast red counterstain was used. Neutral and acidic mucosubstances were identified by alcian blue. pH 2.5, and PAS reaction. The degree of mucus plugging of the airways (0.5-0.8 mm in diameter) was also assessed by morphometry. The percent occlusion of airway diameter by mucus was classified on a semiquantitative scale from 0 to 4+ as described in Figure Legends. The histologic and morphometric analyses were performed by individuals blinded to the protocol design. […]

For “f-Met-Leu-Phe-Phe (For-MLFF) [Example 9]”, the “Reduction of airway eosinophils over time course” value (1-, 2- and 3-month groups, versus OVA) was “reduced eosinophils comparably at one month, but much more beneficially at two and three months”, the “% of plug of airway” value (28 days) was 19% and the “Mucus plug score in airways” value (28 days, semiquantitative scale 0 to 4+) was 1.4. For the same substance, the “Mucus accumulation / mucus release in the airway (histology, morphometry)” value (HK-X given before i.n. OVA, FIG. 6, listed as HK-X) was “inhibits mucus accumulation; also recorded: markedly reduced”, the “Infiltration of the interstitial tissue by eosinophils (histology)” value (compared to OVA-challenge alone, FIG. 6C) was “also reduced” and the “Formation of mucus plugs / mucus production in small airways” value (doses of 5 μg/kg and 10 μg/kg, FIG. 7) was “Both doses significantly reduce the mucus production in small airways”.
